These results are taken from patent US8471005B2 (Cephalon, Inc., priority 2008, dated 2013).

Bounds are passed on as bounds.

Experiment [1] has as its target T1, ALK (Homo sapiens, UniProt Q9UM73).
T1 construct: host or cells: baculovirus expression system
The experiment is described as follows: ALK Kinase Assay (ELISA/TRF, PLC-γ substrate). It is filed as biochemical. As to conditions: ALK kinase inhibition, 1 μM ATP; read-out: ALK Potency. The essentials:
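Read-out is time-resolved fluorescence from a Eu-N1-labeled PT66 antibody that binds phosphorylated PLC-γ, the substrate coated at 10 μg/mL in TBS. ALK at 30 ng/ml starts the reaction, which runs 15 minutes at 37° C.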

For experiment [2], the target named is T2, JAK2 (Homo sapiens, UniProt O60674).
T2 construct: host or cells: baculovirus expression system
T2 sequence (O60674 whole entry): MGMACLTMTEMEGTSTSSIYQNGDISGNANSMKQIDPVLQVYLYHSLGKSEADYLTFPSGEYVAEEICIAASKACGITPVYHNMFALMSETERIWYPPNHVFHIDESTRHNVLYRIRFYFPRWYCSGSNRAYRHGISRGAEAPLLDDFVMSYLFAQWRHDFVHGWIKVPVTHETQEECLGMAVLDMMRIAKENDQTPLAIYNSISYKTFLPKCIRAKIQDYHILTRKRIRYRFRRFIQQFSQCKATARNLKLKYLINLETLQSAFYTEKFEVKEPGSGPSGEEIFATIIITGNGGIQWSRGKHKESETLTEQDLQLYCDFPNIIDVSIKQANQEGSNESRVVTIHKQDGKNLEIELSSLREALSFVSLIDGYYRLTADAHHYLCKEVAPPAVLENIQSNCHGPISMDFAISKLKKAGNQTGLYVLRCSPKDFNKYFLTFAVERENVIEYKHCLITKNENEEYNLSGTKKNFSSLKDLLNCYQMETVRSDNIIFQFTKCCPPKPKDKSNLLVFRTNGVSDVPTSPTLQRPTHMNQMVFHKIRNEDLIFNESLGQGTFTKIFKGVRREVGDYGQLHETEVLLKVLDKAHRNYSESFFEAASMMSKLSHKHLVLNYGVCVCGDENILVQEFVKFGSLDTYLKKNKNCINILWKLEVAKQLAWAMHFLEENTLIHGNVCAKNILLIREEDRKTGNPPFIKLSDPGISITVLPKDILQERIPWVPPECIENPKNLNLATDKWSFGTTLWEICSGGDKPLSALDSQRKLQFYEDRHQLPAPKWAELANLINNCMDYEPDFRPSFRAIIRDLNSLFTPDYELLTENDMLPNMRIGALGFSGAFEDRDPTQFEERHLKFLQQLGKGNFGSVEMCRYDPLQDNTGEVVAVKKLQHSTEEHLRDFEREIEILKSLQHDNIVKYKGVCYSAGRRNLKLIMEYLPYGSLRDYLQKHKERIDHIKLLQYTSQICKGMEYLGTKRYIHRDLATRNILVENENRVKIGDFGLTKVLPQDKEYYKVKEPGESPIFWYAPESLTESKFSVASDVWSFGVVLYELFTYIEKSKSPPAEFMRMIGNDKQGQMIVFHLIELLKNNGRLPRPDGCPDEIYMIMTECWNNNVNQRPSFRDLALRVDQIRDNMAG
Description: Recombinant Human JAK2 Kinase Assay (TRF). Type of experiment: biochemical. The note with it: JAK2 kinase inhibition, 0.2 μM ATP; read-out: JAK2 Potency. The essentials:
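Baculovirus-expressed JAK2 (15 ng/ml) phosphorylated a biotinylated 15-mer peptide captured on Neutravidin-coated plates, in 20 mM HEPES pH 7.2 with 0.2 μM ATP, 1 mM MnCl2, 0.1% BSA and 2.5% DMSO. Reaction ran 20 min at room temperature; phosphopeptide was detected by time-resolved fluorescence with Eu-N1-labelled PY100 antibody.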

T1 sequence (Q9UM73 19-1620): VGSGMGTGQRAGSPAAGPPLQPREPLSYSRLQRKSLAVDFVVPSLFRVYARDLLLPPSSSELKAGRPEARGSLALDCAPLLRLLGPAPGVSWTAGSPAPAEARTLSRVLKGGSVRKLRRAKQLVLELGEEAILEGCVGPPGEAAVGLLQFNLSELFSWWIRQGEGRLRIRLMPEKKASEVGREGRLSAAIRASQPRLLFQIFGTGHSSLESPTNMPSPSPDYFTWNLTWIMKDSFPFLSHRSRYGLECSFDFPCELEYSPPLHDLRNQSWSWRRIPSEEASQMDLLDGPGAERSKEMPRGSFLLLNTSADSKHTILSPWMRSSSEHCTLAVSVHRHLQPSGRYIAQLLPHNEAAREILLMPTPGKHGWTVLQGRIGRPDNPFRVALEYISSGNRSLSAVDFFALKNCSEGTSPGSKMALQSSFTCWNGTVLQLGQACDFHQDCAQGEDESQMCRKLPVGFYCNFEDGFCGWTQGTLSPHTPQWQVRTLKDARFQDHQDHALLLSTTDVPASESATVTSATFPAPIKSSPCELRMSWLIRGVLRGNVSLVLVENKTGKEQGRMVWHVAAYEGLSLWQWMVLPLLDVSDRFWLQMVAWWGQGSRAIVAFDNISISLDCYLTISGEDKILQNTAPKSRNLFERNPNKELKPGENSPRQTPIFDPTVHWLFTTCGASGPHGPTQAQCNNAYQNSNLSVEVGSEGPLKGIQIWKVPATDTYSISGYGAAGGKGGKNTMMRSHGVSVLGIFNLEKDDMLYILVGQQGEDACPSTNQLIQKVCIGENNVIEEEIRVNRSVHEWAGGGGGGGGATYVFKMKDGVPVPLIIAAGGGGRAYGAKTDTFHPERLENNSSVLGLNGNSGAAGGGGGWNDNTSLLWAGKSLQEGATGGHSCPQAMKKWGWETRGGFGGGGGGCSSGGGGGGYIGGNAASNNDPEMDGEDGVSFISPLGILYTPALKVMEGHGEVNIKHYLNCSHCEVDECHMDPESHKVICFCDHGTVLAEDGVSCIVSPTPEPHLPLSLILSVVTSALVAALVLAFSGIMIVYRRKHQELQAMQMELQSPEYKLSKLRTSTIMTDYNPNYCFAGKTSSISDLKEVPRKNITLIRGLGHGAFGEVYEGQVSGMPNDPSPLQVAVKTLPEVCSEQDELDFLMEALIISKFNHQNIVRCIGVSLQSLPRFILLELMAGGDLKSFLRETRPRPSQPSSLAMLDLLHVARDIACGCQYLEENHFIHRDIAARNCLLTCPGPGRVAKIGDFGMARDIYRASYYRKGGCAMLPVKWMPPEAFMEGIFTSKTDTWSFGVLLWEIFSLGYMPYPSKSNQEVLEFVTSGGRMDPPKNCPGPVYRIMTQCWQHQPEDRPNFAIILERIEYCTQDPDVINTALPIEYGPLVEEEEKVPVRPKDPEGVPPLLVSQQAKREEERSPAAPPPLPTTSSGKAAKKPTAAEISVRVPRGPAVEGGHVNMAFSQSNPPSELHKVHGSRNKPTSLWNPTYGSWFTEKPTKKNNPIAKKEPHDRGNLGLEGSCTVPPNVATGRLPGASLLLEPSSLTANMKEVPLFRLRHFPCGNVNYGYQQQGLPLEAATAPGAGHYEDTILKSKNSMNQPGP

`CN1CCC(c2ccc(Nc3ncc4ccc(-c5cccc(S(=O)(=O)NC6CC6)c5)n4n3)cc2)CC1` [Example 906, N-Cyclopropyl-3-{2-[4-(1-methyl-piperidin-4-yl)-phenylamino]-pyrrolo[2,1-f][1,2,4]triazin-7-yl}-benzenesulfonamide]: the IC50 in experiment [1] and in experiment [2] was < 100 nM in each case.

Take `CCNS(=O)(=O)c1cccc(-c2ccc3cnc(Nc4ccc(C5CCN(C)CC5)cc4)nn23)c1` [Example 907, N-Ethyl-3-{2-[4-(1-methyl-piperidin-4-yl)-phenylamino]-pyrrolo[2,1-f][1,2,4]triazin-7-yl}-benzenesulfonamide]: the IC50 in experiment [1] and in experiment [2] was < 100 nM throughout.

Regarding `COc1ccccc1-c1ccc2cnc(Nc3ccc(C4CCN(C)CC4)c(OC)c3)nn12` [Example 908, [3-Methoxy-4-(1-methyl-piperidin-4-yl)-phenyl]-[7-(2-methoxy-phenyl)-pyrrolo[2,1-f][1,2,4]triazin-2-yl]-amine], the IC50 in experiment [1] and in experiment [2] was < 100 nM in each case.

For `COc1ccc(-c2ccc3cnc(Nc4ccc(-c5csnn5)cc4)nn23)cn1` [Example 909, [7-(6-Methoxy-pyridin-3-yl)-pyrrolo[2,1-f][1,2,4]triazin-2-yl]-(4-[1,2,3]thiadiazol-4-yl-phenyl)-amine], the IC50 in experiment [1] is 1000 to 10000 nM; in experiment [2], < 100 nM.

Regarding `COc1ccc(-c2ccc3cnc(Nc4ccc(C5CCN(C)CC5)c(OC)c4)nn23)cn1` [Example 910, [3-Methoxy-4-(1-methyl-piperidin-4-yl)-phenyl]-[7-(6-methoxy-pyridin-3-yl)-pyrrolo[2,1-f][1,2,4]triazin-2-yl]-amine], the IC50 in experiment [1] and in experiment [2] was < 100 nM throughout.

For the compound `COc1ccc(-c2ccc3cnc(Nc4ccc(C5CCN(CC(N)=O)CC5)c(OC)c4)nn23)cn1` [Example 911, 2-(4-{2-Methoxy-4-[7-(6-methoxy-pyridin-3-yl)-pyrrolo[2,1-f][1,2,4]triazin-2-ylamino]-phenyl}-piperidin-1-yl)-acetamide], the IC50 in experiment [1] and in experiment [2] was < 100 nM each time.

As to `COc1ccccc1-c1ccc2cnc(Nc3ccc(C4CCN(CC(N)=O)CC4)c(OC)c3)nn12` [Example 912, 2-(4-{2-Methoxy-4-[7-(2-methoxy-phenyl)-pyrrolo[2,1-f][1,2,4]triazin-2-ylamino]-phenyl}-piperidin-1-yl)-acetamide], the IC50 in experiment [1] and in experiment [2] was < 100 nM throughout.

As to `COc1cc(Nc2ncc3ccc(-c4ccccc4N(C)S(C)(=O)=O)n3n2)ccc1C1CCN(C)CC1` [Example 913, N-(2-{2-[3-Methoxy-4-(1-methyl-piperidin-4-yl)-phenylamino]-pyrrolo[2,1-f][1,2,4]triazin-7-yl}-phenyl)-N-methyl-methanesulfonamide], the IC50 in experiment [1] and in experiment [2] was < 100 nM each time.

As to `COc1cc(Nc2ncc3ccc(-c4ccccc4N(C)S(C)(=O)=O)n3n2)ccc1C1CCN(CC(N)=O)CC1` [Example 914, 2-[4-(4-{7-[2-(Methanesulfonyl-methyl-amino)-phenyl]-pyrrolo[2,1-f][1,2,4]triazin-2-ylamino}-2-methoxy-phenyl)-piperidin-1-yl]-acetamide], the IC50 in experiment [1] and in experiment [2] was < 100 nM throughout.

As to `COc1ccccc1-c1ccc2cnc(Nc3ccc4c(c3)CCN(C)C4)nn12` [Example 915, [7-(2-Methoxy-phenyl)-pyrrolo[2,1-f][1,2,4]triazin-2-yl]-(2-methyl-1,2,3,4-tetrahydro-isoquinolin-6-yl)-amine], the IC50 in experiment [1] and in experiment [2] was < 100 nM each time.

Turning to `COc1ccc(-c2ccc3cnc(Nc4ccc5c(c4)CCN(CC(N)=O)C5)nn23)cn1` [Example 916, 2-{6-[7-(6-Methoxy-pyridin-3-yl)-pyrrolo[2,1-f][1,2,4]triazin-2-ylamino]-3,4-dihydro-1H-isoquinolin-2-yl}-acetamide], the IC50 is > 10000 nM in experiment [1] and < 100 nM in experiment [2].

Regarding `COc1ccccc1-c1ccc2cnc(Nc3ccc4c(c3)CCN(CC(N)=O)C4)nn12` [Example 917, 2-{6-[7-(2-Methoxy-phenyl)-pyrrolo[2,1-f][1,2,4]triazin-2-ylamino]-3,4-dihydro-1H-isoquinolin-2-yl}-acetamide], the IC50 in experiment [1] was 100 to 1000 nM; in experiment [2] it was < 100 nM.

With `CN(c1ccccc1-c1ccc2cnc(Nc3ccc4c(c3)CCN(CC(N)=O)C4)nn12)S(C)(=O)=O` [Example 918, 2-(6-{7-[2-(Methanesulfonyl-methyl-amino)-phenyl]-pyrrolo[2,1-f][1,2,4]triazin-2-ylamino}-3,4-dihydro-1H-isoquinolin-2-yl)-acetamide], the figures for the IC50 in experiment [1] and in experiment [2] were 100 to 1000 nM and < 100 nM, respectively.

With `COc1ccc(-c2ccc3cnc(Nc4ccc5c(c4)CCN(C)C5)nn23)cn1` [Example 919, [7-(6-Methoxy-pyridin-3-yl)-pyrrolo[2,1-f][1,2,4]triazin-2-yl]-(2-methyl-1,2,3,4-tetrahydro-isoquinolin-6-yl)-amine], the IC50 in experiment [1] was 100 to 1000 nM; in experiment [2] it was < 100 nM.

In the case of `CC(C)(C)NS(=O)(=O)c1cccc(-c2ccc3cnc(Nc4ccc5c(c4)CCN(CC(N)=O)C5)nn23)c1` [Example 920, 2-{6-[7-(3-tert-Butylsulfamoyl-phenyl)-pyrrolo[2,1-f][1,2,4]triazin-2-ylamino]-3,4-dihydro-1H-isoquinolin-2-yl}-acetamide], the IC50 in experiment [1] is 100 to 1000 nM; in experiment [2], < 100 nM.

`CN1CCc2cc(Nc3ncc4ccc(-c5cccc(S(=O)(=O)NC(C)(C)C)c5)n4n3)ccc2C1` [Example 921, N-tert-Butyl-3-[2-(2-methyl-1,2,3,4-tetrahydro-isoquinolin-6-ylamino)-pyrrolo[2,1-f][1,2,4]triazin-7-yl]-benzenesulfonamide]: the IC50 in experiment [1] and in experiment [2] was < 100 nM in each case.

Take `COc1ccccc1-c1ccc2cnc(Nc3cc4c(cc3F)CCC(=O)N4)nn12` [Example 922, 6-Fluoro-7-[7-(2-methoxy-phenyl)-pyrrolo[2,1-f][1,2,4]triazin-2-ylamino]-3,4-dihydro-1H-quinolin-2-one]: the IC50 is 1000 to 10000 nM in experiment [1] and < 100 nM in experiment [2].

As to `COc1cc(Nc2ncc3ccc(-c4cccc(S(C)(=O)=O)c4)n3n2)ccc1C1CCN(CC(N)=O)CC1` [Example 923, 2-(4-{4-[7-(3-Methanesulfonyl-phenyl)-pyrrolo[2,1-f][1,2,4]triazin-2-ylamino]-2-methoxy-phenyl}-piperidin-1-yl)-acetamide], the IC50 in experiment [1] was 100 to 1000 nM; in experiment [2], < 100 nM.

As to `COc1cc(Nc2ncc3ccc(-c4cccc(S(=O)(=O)NC(C)(C)C)c4)n3n2)ccc1C1CCN(CC(N)=O)CC1` [Example 924, 2-(4-{4-[7-(3-tert-Butylsulfamoyl-phenyl)-pyrrolo[2,1-f][1,2,4]triazin-2-ylamino]-2-methoxy-phenyl}-piperidin-1-yl)-acetamide], the IC50 in experiment [1] and in experiment [2] was < 100 nM throughout.

Turning to `COc1ccccc1-c1ccc2cnc(Nc3ccc4c(c3)CN(CC(N)=O)C4)nn12` [Example 925, 2-{5-[7-(2-Methoxy-phenyl)-pyrrolo[2,1-f][1,2,4]triazin-2-ylamino]-1,3-dihydro-isoindol-2-yl}-acetamide], the IC50 in experiment [1] is 100 to 1000 nM; in experiment [2], < 100 nM.
